Key:
[1] = Metabolic stability in liver microsomes, Method II; format: in vitro ADME
Procedure: Determination of Metabolic Stability in Liver Microsomes—Method II
The in vitro metabolic stability assay was performed in a 96-deep-well plate with incubation at 37° C. 10 mM DMSO stock solution of the test compound was diluted 1:20 in acetonitrile, followed by an additional 1:10 dilution in 100 mM potassium phosphate buffer (KPi) to yield a final reaction concentration of 1 μM. Immediately prior to the start of the experiment, respective animal or human liver microsomes (male Sprague-dawley rat, male CD-1 mouse, or pooled human liver microsomes) were diluted in 100 mM KPi to 1.25 mg/mL liver microsomal protein. […]
At 0, 5, 15 and 30 minute time points in the reaction, reaction aliquots (75 μL) were removed and the reactions were terminated by the addition of 50:50 acetonitrile/methanol solution (75 μL) containing a mass spectrometry internal standard (0.5 μM glyburide). […] The supernatants solution were analyzed by UPLC/MS/MS for quantitation of parent remaining compound under multiple reactions monitoring mode (MRM) in positive mode. […]
The injection volume was 5 μL. Compounds were detected using Analyst 1.5.1 software which collects intensity data for all fragments related to the molecular weight of the test compound. […]
The intrinsic clearance value, CLint (expressed as μL/min/mg microsomal protein) calculation is shown below: […]

[2] = Metabolic stability in liver microsomes, Method II; format: in vitro ADME; remark: listed apart in the source
Procedure: The in vitro metabolic stability assay was performed in a 96-deep-well plate with incubation at 37° C. 10 mM DMSO stock solution of the test compound was diluted 1:20 in acetonitrile, followed by an additional 1:10 dilution in 100 mM potassium phosphate buffer (KPi) to yield a final reaction concentration of 1 μM. […] 290 μL of cofactor solution (1.7 mM NADPH, 1.7 mM UDPGA, 3.4 mM MgCl in 100 mM KPi) was added to 200 μL of microsomal protein for a final volume of 490 μL. The reaction was initiated by adding 10 μL of the 50 μM test solution to 490 μL of microsomal protein for a final volume 500 μL enzyme-compound mixture.
At 0, 5, 15 and 30 minute time points in the reaction, reaction aliquots (75 μL) were removed and the reactions were terminated by the addition of 50:50 acetonitrile/methanol solution (75 μL) containing a mass spectrometry internal standard (0.5 μM glyburide). The samples were centrifuged at 4000 RPM for 10 minutes. […] The supernatants solution were analyzed by UPLC/MS/MS for quantitation of parent remaining compound under multiple reactions monitoring mode (MRM) in positive mode. […]

## C[C@H](Nc1ncc(F)c(N2C(=O)OC[C@@H]2[C@H](C)F)n1)c1cn(-c2ccc(Cl)cc2F)cn1 [Example 477, (R)-3-(2-(((S)-1-(1-(4-chloro-2-fluorophenyl)-1H-imidazol-4-yl)ethyl)amino)-5-fluoropyrimidin-4-yl)-4-((S)-1-fluoroethyl)oxazolidin-2-one]
[1]
  Human microsomal stability CLint: 30.44 µL/min/mg
[2]
  Mouse microsomal stability CLint: 167.04 µL/min/mg

— patent US9688672B2, “3-pyrimidin-4-yl-oxazolidin-2-ones as inhibitors of mutant IDH” (NOVARTIS AG, priority 2013, dated 2017)
